What was measured:
[1] = Dynamic Vapour Sorption (DVS) with XRPD re-analysis; type: physicochemical
Description: Dynamic Vapour Sorption (DVS) was performed on a DVS-1 dynamic vapour sorption balance by Surface Measurement Systems. Approximately 10-20 mg of sample was loaded into a wire mesh vapour sorption balance pan of the balance. The sample was subjected to a ramping profile from 20-90% relative humidity (RH) in 10% increments, maintaining the sample at each step until a stable weight had been achieved (99.5% step completion) or 1000 minutes had elapsed. After completion of the sorption cycle, the sample was dried using the same procedure, but all the way down to 0% RH and finally taken back to the starting point of 20% RH. The weight change during the sorption/desorption cycles were plotted, allowing for the hygroscopic nature of the sample to be determined. Following the DVS analysis, the solid was re-analysed by XRPD in order to determine whether there had been any change in physical form.

[2] = Solid form stability in slurries; type: physicochemical; settings: slurries at high temperature

O=C(O)CNC(=O)c1ncc(-c2cccc(Cl)c2)cc1O [Form B, {[5-(3-chlorophenyl)-3-hydroxypyridine-2-carbonyl]amino}acetic acid]
water sorption at 90% RH ([1]; DVS, 90% RH): 0.33% | XRPD analysis following DVS (change in physical form) ([1]; after DVS sorption/desorption cycle): no change in form | hygroscopicity (DVS) ([1]; judged from water sorption at 90% RH): non-hygroscopic | solid form stability [2]: metastable and can convert to Form A in slurries at high temperature
